Test results from ChEMBL document CHEMBL1131832, “Synthesis and pharmacological activity of diarylindole derivatives. Cytotoxic agents based on combretastatins” (Bioorg Med Chem Lett, 1999).

Assays:
A549 = assay: Antineoplastic activity against A-549 (human lung carcinoma) cell line.; type: functional, cell-based
P388 = assay: Antineoplastic activity against P-388 (murine lymphoid neoplasm) cell line.; type: functional, cell-based; details: Mus musculus
HT-29 = assay: Antineoplastic activity against HT-29 (human colon adenocarcinoma) cell line.; type: functional, cell-based
SK-MEL-28 = assay: Antineoplastic activity against SK-MEL-28 (human melanoma) cell line.; type: functional, cell-based
SK-MEL-5 = assay: Compound was evaluated for cytostatic activity against SK-MEL-5 melanoma cell line; type: functional; details: Homo sapiens
COLO 205 = assay: Compound was evaluated for cytostatic activity against COLO 205 colon cancer cell line; type: functional; details: Homo sapiens
NCI-H522 = assay: Compound was evaluated for cytostatic activity against NCI-H522 non-small cell lung cancer cell line; type: functional; details: Homo sapiens
SF-539 = assay: Compound was evaluated for cytostatic activity against SF-539 CNS cancer cell line; type: functional; details: Homo sapiens
OVCAR-3 = assay: Compound was evaluated for cytostatic activity against OVCAR-3 ovarian cancer cell line; type: functional; details: Homo sapiens
HL-60 = assay: Compound was evaluated for cytostatic activity against the HL-60(TB) leukemia cell line; type: functional; details: Homo sapiens
SNB-19 = assay: Compound was evaluated for cytostatic activity against SNB-19 CNS cancer cell line; type: functional; details: Homo sapiens
SF-295 = assay: Compound was evaluated for cytostatic activity against SF-295 CNS cancer cell line; type: functional; details: Homo sapiens
RPMI-8226 = assay: Compound was evaluated for cytostatic activity against the RPMI-8226 leukemia cell line; type: functional; details: Homo sapiens
HCT-116 = assay: Compound was evaluated for cytostatic activity against […] colon cancer cell line; type: functional; details: Homo sapiens
[1] = read-out: Log LC50 (the source's name) (converted)

| Structure (SMILES) | IC50 (A549) [µM] | IC50 (P388) [µM] | IC50 (HT-29) [µM] | IC50 (SK-MEL-28) [µM] | also measured |
| --- | --- | --- | --- | --- | --- |
| COc1cc(CC(=O)c2ccoc2)cc(OC)c1OC | 7.24 | 7.24 | 7.24 | 7.24 |  |
| COc1ccc2[nH]c(-c3ccc4c(c3)OCO4)c(-c3cc(OC)c(OC)c(OC)c3)c2c1 | 6.31 | 2.29 | 6.31 | 6.31 |  |
| COc1cc(CCc2ccc3c(c2)OCO3)cc(OC)c1OC |  |  |  | 6.31 |  |
| COc1ccc2[nH]c(-c3ccoc3)c(-c3cc(OC)c(OC)c(OC)c3)c2c1 | 3.24 | 3.24 | 3.24 | 3.24 |  |
| COc1ccc2[nH]c(-c3ccc(C)o3)c(-c3cc(OC)c(OC)c(OC)c3)c2c1 | 5.13 | 5.13 | 6.46 | 5.13 |  |
| COc1cc(CC(O)c2ccoc2)cc(OC)c1OC (stereo not given) | 72.4 | 36.3 | 72.4 | 72.4 |  |
| COc1ccc2[nH]c(-c3ccco3)c(-c3cc(OC)c(OC)c(OC)c3)c2c1 | 1.32 | 0.708 | 1.32 |  | GI50 (SK-MEL-5): 0.245 µM; CC50 (SK-MEL-5; [1]): 28.8 µM; GI50 (COLO 205): 0.186 µM; CC50 (COLO 205; [1]): 0.676 µM; GI50 (NCI-H522): 0.0759 µM; CC50 (NCI-H522; [1]): 3.39 µM; GI50 (SF-539): 0.117 µM; CC50 (SF-539; [1]): 0.933 µM; GI50 (OVCAR-3): 0.17 µM; CC50 (OVCAR-3; [1]): 7.24 µM; GI50 (HL-60): 0.0513 µM; CC50 (HL-60; [1]): > 100 µM; GI50 (SNB-19): 0.0229 µM; CC50 (SNB-19; [1]): 0.977 µM; GI50 (SF-295): 0.138 µM; CC50 (SF-295; [1]): 23.4 µM; GI50 (RPMI-8226): 0.0912 µM; CC50 (RPMI-8226; [1]): 75.9 µM; GI50 (HCT-116): 0.138 µM; CC50 (HCT-116; [1]): 2.51 µM |
| COc1cc(CC(O)c2ccc3ccccc3c2)cc(OC)c1OC (stereo not given) | 2.95 | 2.95 | 2.95 | 2.95 |  |
| COc1cc(CC(=O)c2ccco2)cc(OC)c1OC | > 100 | > 100 | > 100 | > 100 |  |
| COc1cc(CC(=O)c2ccc(C)o2)cc(OC)c1OC | 17.4 | 8.71 | 17.4 | 8.71 |  |
| COc1cc(CC(O)c2ccc3c(c2)OCO3)cc(OC)c1OC (stereo not given) | > 100 | > 100 | > 100 | > 100 |  |
| COc1cc(CCc2ccco2)cc(OC)c1OC | 19.1 | 19.1 | 19.1 | 19.1 |  |
| COc1cc(CC(O)c2ccco2)cc(OC)c1OC (stereo not given) | 36.3 | 18.2 | 36.3 | 36.3 |  |
| COc1cc(CCc2ccoc2)cc(OC)c1OC | > 100 | > 100 | > 100 | > 100 |  |
| COc1cc(CCc2ccc(C)o2)cc(OC)c1OC | 7.24 | 7.24 | 7.24 | 7.24 |  |
| COc1cc(CC(=O)c2ccc3ccccc3c2)cc(OC)c1OC | 15.1 | 15.1 | 30.2 | 15.1 |  |
| COc1ccc2[nH]c(-c3ccc4ccccc4c3)c(-c3cc(OC)c(OC)c(OC)c3)c2c1 | 1.12 | 1.12 | 2.24 | 1.12 |  |
| COc1cc(CCc2ccc3ccccc3c2)cc(OC)c1OC |  |  |  | 0.302 |  |
